The values that follow come from ChEMBL document CHEMBL1806354 (J Med Chem, 2011).

Assay [1] deals with Rattus norvegicus. Description: Antiparkinsonian activity in 6-hydroxydopamine lesioned Sprague-Dawley rat assessed as contralateral rotations at 1.5 mg/kg, ip measured every 5 mins for 6 hrs pretreated with D2 receptor antagonist 2 mg/kg of spiperone for 15 mins before compound challenge. The class given is functional, organism-based.
Assay [2] has as its system Rattus norvegicus. The assay is described as follows: Antiparkinsonian activity in 6-hydroxydopamine lesioned Sprague-Dawley rat assessed as contralateral rotations at 1.5 mg/kg, ip measured every 5 mins for 6 hrs pretreated with 5-HT1A receptor antagonist 0.1 mg/kg of WAY-100635 for 10 mins before compound challenge. The class given is functional, organism-based.
Assay [3] deals with Rattus norvegicus. The assay is described as follows: Antiparkinsonian effect in 21 days L-DOPA treated Parkinson's disease rat model assessed as reduction in L-DOPA-induced dyskinesia at 0.5 to 1.5 mg/kg, ip administered 15 mins before L-DOPA challenge on day 23. The class given is functional, organism-based.
In assay [4] the test system is Rattus norvegicus. The assay is described as follows: Antiparkinsonian effect in Parkinson's disease rat model assessed as effect on contralateral rotations measured per 5 mins at 0.5 to 1.5 mg/kg, ip qd for 21 days. The assay is classed as functional, organism-based.
The test system of assay [5] is Rattus norvegicus. Description: Agonist activity at 5HT1A receptor in lesioned striatum of rat L-DOPA-induced dyskinesia model assessed as stimulation of 8-OH-DPAT-induced [35S]GTPgammaS binding at 1.5 mg/kg administered qd for 21 days by liquid scintillation counting. The class given is functional, organism-based. On the set-up: dose 1.5 mg/kg.
The test system of assay [6] is Rattus norvegicus. The assay is described as follows: Antiparkinsonian effect in 6-hydroxydopamine lesioned Sprague-Dawley rat Parkinson's disease model assessed as induction of FosB expression in striatum at 1.5 mg/kg administered qd for 21 days by Western blot analysis. The class given is functional, organism-based. On the set-up: dose 1.5 mg/kg. For orientation: Immunoblotting shows a protein as a band on a membrane.

For assay [7], the target named is T1, 5-hydroxytryptamine receptor 1A (Rattus norvegicus) (UniProt P19327).
T1 sequence (whole entry): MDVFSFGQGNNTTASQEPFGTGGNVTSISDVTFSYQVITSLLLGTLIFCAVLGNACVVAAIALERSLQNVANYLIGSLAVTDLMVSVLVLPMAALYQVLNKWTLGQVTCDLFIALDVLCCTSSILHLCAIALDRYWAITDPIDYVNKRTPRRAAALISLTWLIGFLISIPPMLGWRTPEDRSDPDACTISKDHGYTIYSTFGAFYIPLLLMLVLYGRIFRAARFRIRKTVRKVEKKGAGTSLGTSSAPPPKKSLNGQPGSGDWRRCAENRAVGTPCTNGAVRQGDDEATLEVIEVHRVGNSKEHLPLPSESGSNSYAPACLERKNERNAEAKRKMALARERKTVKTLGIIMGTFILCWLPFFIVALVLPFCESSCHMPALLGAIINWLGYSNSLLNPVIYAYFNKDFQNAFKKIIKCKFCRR
The assay is described as follows: Decrease of 5HT1A receptor-mediated excitatory postsynaptic current amplitude in Sprague-Dawley rat median prefrontal cortex at 10 uM by whole-cell voltage clamp assay. The class given is tissue-based. On the set-up: scale not given: the % may be the effect or the level left.

Assay [8] deals with T1, 5-hydroxytryptamine receptor 1A (Rattus norvegicus). The assay is described as follows: Effect on 5HT1A receptor-mediated pair pulse ratio in Sprague-Dawley rat median prefrontal cortex at 10 uM by whole-cell voltage clamp assay. The assay is classed as tissue-based.
Assay [9] has the same target. Description: Decrease of 5HT1A receptor-mediated excitatory postsynaptic current amplitude in Sprague-Dawley rat median prefrontal cortex at 10 uM by whole-cell voltage clamp assay in presence of 10 uM of 5HT1A receptor antagonist WAY-100635. The class given is functional, tissue-based. On the set-up: scale not given: the % may be the effect or the level left.
A further assay concerns the target D(1A) dopamine receptor (Homo sapiens, UniProt P21728). Description: Displacement of [3H]SCH23390 from dopamine D1 receptor expressed in HEK293 cells at 10 uM after 50 mins by beta liquid scintillation counter. The class given is cell-based. For orientation: Loss of bound radioactivity is the signal in a displacement assay; it reports binding, not function.
In a further assay the target is D(2) dopamine receptor (Homo sapiens, UniProt P14416). The assay is described as follows: Displacement of [3H]spiperone from dopamine D2 receptor expressed in HEK293 cells after 50 mins by beta liquid scintillation counter. The class given is cell-based.
Chain of D(2) dopamine receptor (P14416 whole entry): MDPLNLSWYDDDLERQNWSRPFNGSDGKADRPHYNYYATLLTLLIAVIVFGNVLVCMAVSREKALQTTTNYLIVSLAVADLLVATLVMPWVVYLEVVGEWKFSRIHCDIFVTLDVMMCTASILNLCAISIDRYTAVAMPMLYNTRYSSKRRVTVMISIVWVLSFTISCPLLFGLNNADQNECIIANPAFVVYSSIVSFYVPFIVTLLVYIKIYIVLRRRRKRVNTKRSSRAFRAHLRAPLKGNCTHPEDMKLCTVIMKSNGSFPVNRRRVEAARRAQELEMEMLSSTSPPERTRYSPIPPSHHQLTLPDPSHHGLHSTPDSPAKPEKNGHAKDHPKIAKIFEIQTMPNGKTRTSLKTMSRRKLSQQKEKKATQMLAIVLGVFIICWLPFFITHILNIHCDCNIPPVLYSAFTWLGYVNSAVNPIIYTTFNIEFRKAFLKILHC
Assay [10] deals with T2, 5-hydroxytryptamine receptor 1A (Homo sapiens, UniProt P08908).
T2 sequence (P08908 whole entry): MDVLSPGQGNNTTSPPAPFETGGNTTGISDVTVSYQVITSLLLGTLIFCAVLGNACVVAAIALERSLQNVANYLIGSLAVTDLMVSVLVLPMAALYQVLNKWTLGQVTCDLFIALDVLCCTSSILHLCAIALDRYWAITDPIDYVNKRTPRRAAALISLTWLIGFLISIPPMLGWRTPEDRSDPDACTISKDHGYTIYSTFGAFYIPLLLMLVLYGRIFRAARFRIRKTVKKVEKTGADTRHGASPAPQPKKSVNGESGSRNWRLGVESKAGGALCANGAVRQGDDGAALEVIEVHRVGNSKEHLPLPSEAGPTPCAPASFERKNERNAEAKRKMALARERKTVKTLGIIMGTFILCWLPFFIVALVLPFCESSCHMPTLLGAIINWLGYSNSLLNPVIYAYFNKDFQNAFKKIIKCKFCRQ
Description: Displacement of [3H]-8-OH-DPAT from 5-HT1A receptor expressed in CHO cells after 50 mins by beta liquid scintillation counter. The assay is classed as cell-based.

Assay [11] addresses 5-hydroxytryptamine receptor 2A (Homo sapiens, UniProt P28223). Description: Displacement of [3H]ketanserin from 5-HT2A receptor expressed in CHO cells at 10 uM after 50 mins by beta liquid scintillation counter. The class given is cell-based.
The target of assay [12] is T2, 5-hydroxytryptamine receptor 1A. The assay is described as follows: Agonist activity at 5-HT1A receptor expressed in CHO cells assessed as stimulation of [35S]GTPgammaS binding after 30 mins. The assay is classed as functional, cell-based. (In general: Binding of GTPγS marks nucleotide exchange on a G protein.)
The target of assay [13] is T3, Alpha-1D adrenergic receptor (Homo sapiens, UniProt P25100).
T3 sequence (P25100 whole entry): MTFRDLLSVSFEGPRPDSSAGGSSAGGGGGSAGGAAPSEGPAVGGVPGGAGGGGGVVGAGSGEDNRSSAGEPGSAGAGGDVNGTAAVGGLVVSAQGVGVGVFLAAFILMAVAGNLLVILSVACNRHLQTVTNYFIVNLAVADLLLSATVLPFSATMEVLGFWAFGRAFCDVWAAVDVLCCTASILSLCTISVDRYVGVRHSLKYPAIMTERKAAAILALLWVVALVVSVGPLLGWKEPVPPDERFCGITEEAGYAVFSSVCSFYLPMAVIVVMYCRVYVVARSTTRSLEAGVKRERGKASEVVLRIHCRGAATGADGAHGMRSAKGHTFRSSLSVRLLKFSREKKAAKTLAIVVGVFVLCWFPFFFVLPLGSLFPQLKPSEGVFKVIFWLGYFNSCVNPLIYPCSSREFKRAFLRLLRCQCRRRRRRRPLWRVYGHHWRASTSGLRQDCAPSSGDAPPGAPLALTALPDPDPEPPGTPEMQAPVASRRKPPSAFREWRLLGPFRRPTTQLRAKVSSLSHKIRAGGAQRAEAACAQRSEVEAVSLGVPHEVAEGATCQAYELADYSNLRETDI
Description: Antagonist activity at adrenergic Alpha-1D receptor expressed in HEK293 cells co-transfected with Galpha16 assessed as inhibition of adrenaline-induced intracellular calcium after 3 to 5 mins by Fluo-4/AM assay. The assay is classed as functional, cell-based.

The target of assay [14] is Beta-2 adrenergic receptor (Homo sapiens, UniProt P07550). Description: Antagonist activity at adrenergic beta2 receptor expressed in HEK293 cells co-transfected with Galpha16 assessed as inhibition of adrenaline-induced intracellular calcium after 3 to 5 mins by Fluo-4/AM assay. The class given is functional, cell-based.
Chain of Beta-2 adrenergic receptor (P07550 whole entry): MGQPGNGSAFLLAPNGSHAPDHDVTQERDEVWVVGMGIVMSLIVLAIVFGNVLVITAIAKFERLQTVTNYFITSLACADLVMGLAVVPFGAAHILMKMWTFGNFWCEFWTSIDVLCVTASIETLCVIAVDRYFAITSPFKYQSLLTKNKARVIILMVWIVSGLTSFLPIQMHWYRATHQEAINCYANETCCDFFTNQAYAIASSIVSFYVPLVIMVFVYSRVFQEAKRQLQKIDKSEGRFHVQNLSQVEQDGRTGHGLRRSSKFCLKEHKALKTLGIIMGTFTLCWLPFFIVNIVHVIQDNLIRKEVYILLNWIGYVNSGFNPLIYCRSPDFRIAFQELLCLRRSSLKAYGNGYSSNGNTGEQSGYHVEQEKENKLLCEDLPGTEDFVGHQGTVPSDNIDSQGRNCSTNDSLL

The structures appear in SMILES notation. pEC50, pIC50, pKi: −log10 of the molar value. The source made the active and inactive calls. The rule behind the calls is not given here.

Chain of 5-hydroxytryptamine receptor 2A (P28223 whole entry): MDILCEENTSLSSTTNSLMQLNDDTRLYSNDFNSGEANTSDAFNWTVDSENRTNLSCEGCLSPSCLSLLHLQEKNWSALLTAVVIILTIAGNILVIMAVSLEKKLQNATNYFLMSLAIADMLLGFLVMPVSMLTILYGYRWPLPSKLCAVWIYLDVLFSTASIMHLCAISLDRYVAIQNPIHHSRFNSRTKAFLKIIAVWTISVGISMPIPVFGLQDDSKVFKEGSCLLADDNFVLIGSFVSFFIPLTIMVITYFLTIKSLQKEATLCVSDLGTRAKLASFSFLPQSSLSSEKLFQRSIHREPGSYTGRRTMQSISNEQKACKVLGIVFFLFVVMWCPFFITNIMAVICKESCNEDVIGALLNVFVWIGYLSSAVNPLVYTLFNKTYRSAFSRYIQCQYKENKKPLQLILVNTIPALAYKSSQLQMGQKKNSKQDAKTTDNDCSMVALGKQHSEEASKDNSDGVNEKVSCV
Chain of D(1A) dopamine receptor (P21728 whole entry): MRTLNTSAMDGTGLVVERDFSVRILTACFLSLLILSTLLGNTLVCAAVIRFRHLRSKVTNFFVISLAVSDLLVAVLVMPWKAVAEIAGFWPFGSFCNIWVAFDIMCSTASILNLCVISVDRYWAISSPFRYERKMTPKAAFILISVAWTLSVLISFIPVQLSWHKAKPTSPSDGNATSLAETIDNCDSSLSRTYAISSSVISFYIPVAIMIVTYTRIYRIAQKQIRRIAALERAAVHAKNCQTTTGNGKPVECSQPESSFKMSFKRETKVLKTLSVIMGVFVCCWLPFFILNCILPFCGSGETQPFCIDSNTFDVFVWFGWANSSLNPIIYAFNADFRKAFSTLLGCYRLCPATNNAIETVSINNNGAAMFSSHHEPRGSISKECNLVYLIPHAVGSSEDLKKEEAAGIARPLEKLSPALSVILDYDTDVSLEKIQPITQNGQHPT

Regarding `CCCN1CCc2cccc3c2[C@H]1Cc1cccc(OC(=O)CCCCC2CCSS2)c1-3` (stereo partly specified), the result in the assay on Rattus norvegicus [1], in the assay with Rattus norvegicus [3] and in the assay on Rattus norvegicus [6] was inactive. The outcome with Rattus norvegicus [2], in the assay with Rattus norvegicus [4] and in the assay on Rattus norvegicus [5] was Active. The Activity came out at 63.8% in [7], 114% in [8] and 99.4% in [9]. The inhibition at D(1A) dopamine receptor was found to be 55.7%; in [11] it was 48%. The pKi on D(2) dopamine receptor was 6.76; in [10], 7.18. Also, the pEC50 in assay [12] was 6.72. Also, the pIC50 in assay [13] and in assay [14] was less than 5.00 each time.

The term inhibition denotes the relative decrease from the control value, in per cent. One may read the pKi as the Ki on a negative log10 scale, so that one unit is a factor of ten. As a reminder, the pEC50 is the negative decadic logarithm of the EC50, by convention in mol/L. The term pIC50 denotes the negative decadic logarithm of the IC50, by convention in mol/L.
